Data taken from the supplement of paper PMC10307832.

Legend:
Assay in all cases: relative viability (nuclei count vs DMSO), 5 days (fraction); higher = more cells survive
[1] = test system: UMC-11
Summary of the method: (§1)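 Five library-drug doses in √10 steps were combined with a fixed anchor-drug dose, or a single drug was given alone, by pin tool to lung cancer cell lines in 1536-well plates the day after seeding. Nuclei were stained and counted after 5 days. Relative viability is the nuclei count in treated wells over that in vehicle wells, taken as the median of duplicate plates.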

[2] = test system: NCI-H1355
Summary of the method: as §1

[3] = test system: NCI-H1648
Summary of the method: as §1

[4] = test system: LCLC-97TM1
Summary of the method: as §1

[5] = test system: NCI-H1623
Summary of the method: as §1

[6] = test system: NCI-H596
Summary of the method: as §1

[7] = test system: NCI-H23
Summary of the method: as §1

[8] = test system: NCI-H322M
Summary of the method: as §1

[9] = test system: NCI-H1993
Summary of the method: as §1

Compound: Nc1ccn([C@@H]2O[C@H](CO)[C@@H](O)[C@@H]2O)c(=O)n1 [Cytarabine] + COc1cccc2cc(-c3nc([C@H]4CC[C@H](C(=O)O)CC4)n4ncnc(N)c34)[nH]c12 [OSI-027] (partner 0.5 µM)
- relative viability ([1]; first compound 0.005 µM): 0.314
- relative viability ([1]; first compound 0.01581 µM): 0.418
- relative viability ([1]; first compound 0.05 µM): 0.386
- relative viability ([1]; first compound 0.1581 µM): 0.226
- relative viability ([1]; first compound 0.5 µM): 0.226
- relative viability ([2]; first compound 0.005 µM): 0.41
- relative viability ([2]; first compound 0.01581 µM): 0.402
- relative viability ([2]; first compound 0.05 µM): 0.31
- relative viability ([2]; first compound 0.1581 µM): 0.2
- relative viability ([2]; first compound 0.5 µM): 0.21
- relative viability ([3]; first compound 0.005 µM): 0.238
- relative viability ([3]; first compound 0.01581 µM): 0.266
- relative viability ([3]; first compound 0.05 µM): 0.246
- relative viability ([3]; first compound 0.1581 µM): 0.214
- relative viability ([3]; first compound 0.5 µM): 0.263
- relative viability ([4]; first compound 0.005 µM): 0.45
- relative viability ([4]; first compound 0.01581 µM): 0.37
- relative viability ([4]; first compound 0.05 µM): 0.439
- relative viability ([4]; first compound 0.1581 µM): 0.191
- relative viability ([4]; first compound 0.5 µM): 0.139
- relative viability ([5]; first compound 0.005 µM): 0.372
- relative viability ([5]; first compound 0.01581 µM): 0.376
- relative viability ([5]; first compound 0.05 µM): 0.277
- relative viability ([5]; first compound 0.1581 µM): 0.258
- relative viability ([5]; first compound 0.5 µM): 0.243
- relative viability ([6]; first compound 0.005 µM): 0.682
- relative viability ([6]; first compound 0.01581 µM): 0.702
- relative viability ([6]; first compound 0.05 µM): 0.592
- relative viability ([6]; first compound 0.1581 µM): 0.418
- relative viability ([6]; first compound 0.5 µM): 0.317
- relative viability ([7]; first compound 0.005 µM): 0.582
- relative viability ([7]; first compound 0.01581 µM): 0.502
- relative viability ([7]; first compound 0.05 µM): 0.507
- relative viability ([7]; first compound 0.1581 µM): 0.272
- relative viability ([7]; first compound 0.5 µM): 0.161
- relative viability ([8]; first compound 0.005 µM): 0.455
- relative viability ([8]; first compound 0.01581 µM): 0.392
- relative viability ([8]; first compound 0.05 µM): 0.325
- relative viability ([8]; first compound 0.1581 µM): 0.377
- relative viability ([8]; first compound 0.5 µM): 0.269
- relative viability ([9]; first compound 0.005 µM): 0.599
- relative viability ([9]; first compound 0.01581 µM): 0.56
- relative viability ([9]; first compound 0.05 µM): 0.529
- relative viability ([9]; first compound 0.1581 µM): 0.484
- relative viability ([9]; first compound 0.5 µM): 0.498

Compound: Cc1sc2c(c1C)C(c1ccc(Cl)cc1)=N[C@@H](CC(=O)OC(C)(C)C)c1nnc(C)n1-2 [JQ1] + Cc1cc(Nc2cc(N3CCN(C)CC3)nc(Sc3ccc(NC(=O)C4CC4)cc3)n2)n[nH]1 [Tozasertib] (partner 0.1 µM)
- relative viability ([1]; first compound 0.04 µM): 0.214
- relative viability ([1]; first compound 0.1265 µM): 0.192
- relative viability ([1]; first compound 0.4 µM): 0.173
- relative viability ([1]; first compound 1.265 µM): 0.175
- relative viability ([1]; first compound 4 µM): 0.162
- relative viability ([2]; first compound 0.04 µM): 0.522
- relative viability ([2]; first compound 0.1265 µM): 0.387
- relative viability ([2]; first compound 0.4 µM): 0.324
- relative viability ([2]; first compound 1.265 µM): 0.23
- relative viability ([2]; first compound 4 µM): 0.202
- relative viability ([3]; first compound 0.04 µM): 0.495
- relative viability ([3]; first compound 0.1265 µM): 0.516
- relative viability ([3]; first compound 0.4 µM): 0.243
- relative viability ([3]; first compound 1.265 µM): 0.153
- relative viability ([3]; first compound 4 µM): 0.137
- relative viability ([4]; first compound 0.04 µM): 0.197
- relative viability ([4]; first compound 0.1265 µM): 0.223
- relative viability ([4]; first compound 0.4 µM): 0.171
- relative viability ([4]; first compound 1.265 µM): 0.116
- relative viability ([4]; first compound 4 µM): 0.146
- relative viability ([5]; first compound 0.04 µM): 0.493
- relative viability ([5]; first compound 0.1265 µM): 0.367
- relative viability ([5]; first compound 0.4 µM): 0.404
- relative viability ([5]; first compound 1.265 µM): 0.375
- relative viability ([5]; first compound 4 µM): 0.335
- relative viability ([6]; first compound 0.04 µM): 0.822
- relative viability ([6]; first compound 0.1265 µM): 0.643
- relative viability ([6]; first compound 0.4 µM): 0.72
- relative viability ([6]; first compound 1.265 µM): 0.237
- relative viability ([6]; first compound 4 µM): 0.225
- relative viability ([7]; first compound 0.04 µM): 0.263
- relative viability ([7]; first compound 0.1265 µM): 0.253
- relative viability ([7]; first compound 0.4 µM): 0.279
- relative viability ([7]; first compound 1.265 µM): 0.147
- relative viability ([7]; first compound 4 µM): 0.138
- relative viability ([8]; first compound 0.04 µM): 0.445
- relative viability ([8]; first compound 0.1265 µM): 0.443
- relative viability ([8]; first compound 0.4 µM): 0.427
- relative viability ([8]; first compound 1.265 µM): 0.362
- relative viability ([8]; first compound 4 µM): 0.375
- relative viability ([9]; first compound 0.04 µM): 0.509
- relative viability ([9]; first compound 0.1265 µM): 0.62
- relative viability ([9]; first compound 0.4 µM): 0.513
- relative viability ([9]; first compound 1.265 µM): 0.424
- relative viability ([9]; first compound 4 µM): 0.489
